Experiments:
Assay in all cases: KINOMEscan binding assay
[1] = biological target: T1, CDC2L5 (Homo sapiens, UniProt Q14004); details: 1 µM i-CDK9
T1 construct: purchased DiscoveRx KINOMEscan
Summary of the method: (§1)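 Panel of >400 kinases screened by active-site competition binding, compound at 1 and 10 µM.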

[2] = biological target: T2, CAMK4 (Homo sapiens, UniProt Q16566); details: read-out: % Retention on Solid Support
T2 construct: purchased DiscoveRx KINOMEscan
Summary of the method: as §1

[3] = biological target: T3, EGFR(G719S) (Homo sapiens, UniProt P00533, G719S)
T3 construct: purchased DiscoveRx KINOMEscan
Summary of the method: as §1

[4] = biological target: T4, FGFR1 (Homo sapiens, UniProt P11362); details: read-out: % Retention on Solid Support
T4 construct: purchased DiscoveRx KINOMEscan
Summary of the method: as §1

[5] = biological target: T5, PAK1 (Homo sapiens, UniProt Q13153); details: read-out: % Retention on Solid Support
T5 construct: purchased DiscoveRx KINOMEscan
Summary of the method: as §1

[6] = biological target: T6, WEE1 (Homo sapiens, UniProt P30291); details: read-out: % Retention on Solid Support
T6 construct: purchased DiscoveRx KINOMEscan
T6 sequence (P30291 whole entry): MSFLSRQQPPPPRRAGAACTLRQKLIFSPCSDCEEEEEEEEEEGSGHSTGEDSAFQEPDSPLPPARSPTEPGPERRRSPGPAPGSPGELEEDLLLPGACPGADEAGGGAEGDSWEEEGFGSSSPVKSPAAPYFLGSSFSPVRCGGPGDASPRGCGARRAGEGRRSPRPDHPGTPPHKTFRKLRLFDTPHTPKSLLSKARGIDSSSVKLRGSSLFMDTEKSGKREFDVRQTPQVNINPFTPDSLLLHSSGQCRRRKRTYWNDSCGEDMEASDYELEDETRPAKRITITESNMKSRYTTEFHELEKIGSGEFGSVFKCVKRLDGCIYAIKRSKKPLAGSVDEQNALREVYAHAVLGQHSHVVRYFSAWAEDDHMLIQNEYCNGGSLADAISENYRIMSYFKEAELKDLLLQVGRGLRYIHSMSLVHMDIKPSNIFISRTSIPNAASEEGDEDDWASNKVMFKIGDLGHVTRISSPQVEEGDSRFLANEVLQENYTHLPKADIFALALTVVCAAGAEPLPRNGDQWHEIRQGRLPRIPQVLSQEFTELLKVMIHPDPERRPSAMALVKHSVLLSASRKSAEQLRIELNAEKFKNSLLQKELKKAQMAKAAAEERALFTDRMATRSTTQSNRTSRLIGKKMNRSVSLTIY
Summary of the method: as §1

[7] = biological target: T7, MAPKAPK5 (Homo sapiens, UniProt Q8IW41); details: read-out: % Retention on Solid Support
T7 construct: purchased DiscoveRx KINOMEscan
T7 sequence (Q8IW41 1-473): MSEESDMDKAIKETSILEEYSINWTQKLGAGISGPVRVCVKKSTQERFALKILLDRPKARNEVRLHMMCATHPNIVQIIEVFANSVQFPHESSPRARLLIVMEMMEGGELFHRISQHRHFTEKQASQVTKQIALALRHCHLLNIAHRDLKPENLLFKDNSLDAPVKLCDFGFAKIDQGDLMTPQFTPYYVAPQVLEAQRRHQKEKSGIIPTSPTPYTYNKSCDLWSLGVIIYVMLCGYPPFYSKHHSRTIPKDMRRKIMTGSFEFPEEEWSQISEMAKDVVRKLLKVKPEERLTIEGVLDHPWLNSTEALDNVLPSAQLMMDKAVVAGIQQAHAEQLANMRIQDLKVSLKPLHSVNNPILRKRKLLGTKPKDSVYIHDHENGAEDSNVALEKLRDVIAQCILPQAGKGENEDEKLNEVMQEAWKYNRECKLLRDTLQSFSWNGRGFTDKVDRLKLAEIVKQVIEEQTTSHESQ
Summary of the method: as §1

[8] = biological target: T8, RSK4(Kin.Dom.2-C-terminal) (Homo sapiens, UniProt Q9UK32)
T8 construct: RSK4(Kin.Dom.2-C-terminal); purchased DiscoveRx KINOMEscan
T8 sequence (Q9UK32 401-745 limits assumed): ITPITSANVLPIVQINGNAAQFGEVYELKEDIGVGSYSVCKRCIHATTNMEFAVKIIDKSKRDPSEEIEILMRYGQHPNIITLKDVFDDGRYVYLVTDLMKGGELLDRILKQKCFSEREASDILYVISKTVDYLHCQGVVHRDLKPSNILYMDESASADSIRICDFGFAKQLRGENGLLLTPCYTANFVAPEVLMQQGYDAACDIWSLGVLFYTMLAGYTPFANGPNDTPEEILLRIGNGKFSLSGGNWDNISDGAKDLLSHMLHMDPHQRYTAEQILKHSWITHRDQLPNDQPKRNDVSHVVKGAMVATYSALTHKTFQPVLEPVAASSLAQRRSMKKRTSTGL
Summary of the method: as §1

[9] = biological target: T9, MARK3 (Homo sapiens, UniProt P27448); details: read-out: % Retention on Solid Support
T9 construct: purchased DiscoveRx KINOMEscan
Summary of the method: as §1

[10] = biological target: T10, ASK1 (Homo sapiens, UniProt Q99683); details: read-out: % Retention on Solid Support
T10 construct: purchased DiscoveRx KINOMEscan
Summary of the method: as §1

[11] = biological target: T11, YES (Homo sapiens, UniProt P07947); details: read-out: % Retention on Solid Support
T11 construct: purchased DiscoveRx KINOMEscan
T11 sequence (P07947 whole entry): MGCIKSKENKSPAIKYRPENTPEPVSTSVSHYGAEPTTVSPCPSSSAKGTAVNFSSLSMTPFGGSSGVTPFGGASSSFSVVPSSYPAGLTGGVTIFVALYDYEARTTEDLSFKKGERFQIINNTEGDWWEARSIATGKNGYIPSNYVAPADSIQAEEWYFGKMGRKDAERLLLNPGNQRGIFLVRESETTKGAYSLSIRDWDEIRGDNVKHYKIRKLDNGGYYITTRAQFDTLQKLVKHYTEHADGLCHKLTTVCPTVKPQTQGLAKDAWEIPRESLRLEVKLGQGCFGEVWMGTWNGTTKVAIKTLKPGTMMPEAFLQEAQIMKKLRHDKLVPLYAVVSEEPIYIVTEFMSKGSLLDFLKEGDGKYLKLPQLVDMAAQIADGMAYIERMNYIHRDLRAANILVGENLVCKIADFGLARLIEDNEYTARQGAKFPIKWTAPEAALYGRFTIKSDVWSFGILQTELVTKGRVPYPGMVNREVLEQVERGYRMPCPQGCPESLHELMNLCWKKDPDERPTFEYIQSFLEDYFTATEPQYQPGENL
Summary of the method: as §1

[12] = biological target: T12, TBK1 (Homo sapiens, UniProt Q9UHD2); details: read-out: % Retention on Solid Support
T12 construct: purchased DiscoveRx KINOMEscan
T12 sequence (Q9UHD2 whole entry): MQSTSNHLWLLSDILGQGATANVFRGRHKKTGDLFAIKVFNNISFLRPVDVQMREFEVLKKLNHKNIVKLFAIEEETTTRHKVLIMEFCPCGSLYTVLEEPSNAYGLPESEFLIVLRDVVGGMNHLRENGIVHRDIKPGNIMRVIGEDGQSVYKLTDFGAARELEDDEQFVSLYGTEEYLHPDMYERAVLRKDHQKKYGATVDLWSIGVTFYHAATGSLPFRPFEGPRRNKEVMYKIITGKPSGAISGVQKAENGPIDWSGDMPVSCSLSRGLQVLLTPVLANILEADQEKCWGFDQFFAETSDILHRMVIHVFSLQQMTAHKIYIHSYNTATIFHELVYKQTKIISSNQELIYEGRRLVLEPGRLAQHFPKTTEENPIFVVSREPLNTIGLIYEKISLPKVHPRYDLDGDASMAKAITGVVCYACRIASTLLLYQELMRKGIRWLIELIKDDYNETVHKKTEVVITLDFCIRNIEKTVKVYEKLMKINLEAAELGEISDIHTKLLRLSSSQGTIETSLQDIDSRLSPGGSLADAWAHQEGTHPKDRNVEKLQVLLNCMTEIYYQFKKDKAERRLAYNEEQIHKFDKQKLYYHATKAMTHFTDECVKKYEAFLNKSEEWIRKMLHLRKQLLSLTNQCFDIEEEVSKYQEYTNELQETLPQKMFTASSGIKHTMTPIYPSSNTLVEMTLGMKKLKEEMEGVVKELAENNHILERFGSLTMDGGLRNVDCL
Summary of the method: as §1

[13] = biological target: T13, BMPR1B (Homo sapiens, UniProt O00238); details: read-out: % Retention on Solid Support
T13 construct: purchased DiscoveRx KINOMEscan
Summary of the method: as §1

[14] = biological target: T14, PDGFRA (Homo sapiens, UniProt P16234); details: read-out: % Retention on Solid Support
T14 construct: purchased DiscoveRx KINOMEscan
Summary of the method: as §1

[15] = biological target: T15, JNK1 (Homo sapiens, UniProt P45983)
T15 construct: purchased DiscoveRx KINOMEscan
Summary of the method: as §1

[16] = biological target: T16, RET (Homo sapiens, UniProt P07949); details: read-out: % Retention on Solid Support
T16 construct: purchased DiscoveRx KINOMEscan
Summary of the method: as §1

[17] = biological target: T17, CDK7 (Homo sapiens, UniProt P50613); details: read-out: % Retention on Solid Support
T17 construct: purchased DiscoveRx KINOMEscan
Summary of the method: as §1

[18] = biological target: T18, HUNK (Homo sapiens, UniProt P57058); details: read-out: % Retention on Solid Support
T18 construct: purchased DiscoveRx KINOMEscan
T18 sequence (P57058 whole entry): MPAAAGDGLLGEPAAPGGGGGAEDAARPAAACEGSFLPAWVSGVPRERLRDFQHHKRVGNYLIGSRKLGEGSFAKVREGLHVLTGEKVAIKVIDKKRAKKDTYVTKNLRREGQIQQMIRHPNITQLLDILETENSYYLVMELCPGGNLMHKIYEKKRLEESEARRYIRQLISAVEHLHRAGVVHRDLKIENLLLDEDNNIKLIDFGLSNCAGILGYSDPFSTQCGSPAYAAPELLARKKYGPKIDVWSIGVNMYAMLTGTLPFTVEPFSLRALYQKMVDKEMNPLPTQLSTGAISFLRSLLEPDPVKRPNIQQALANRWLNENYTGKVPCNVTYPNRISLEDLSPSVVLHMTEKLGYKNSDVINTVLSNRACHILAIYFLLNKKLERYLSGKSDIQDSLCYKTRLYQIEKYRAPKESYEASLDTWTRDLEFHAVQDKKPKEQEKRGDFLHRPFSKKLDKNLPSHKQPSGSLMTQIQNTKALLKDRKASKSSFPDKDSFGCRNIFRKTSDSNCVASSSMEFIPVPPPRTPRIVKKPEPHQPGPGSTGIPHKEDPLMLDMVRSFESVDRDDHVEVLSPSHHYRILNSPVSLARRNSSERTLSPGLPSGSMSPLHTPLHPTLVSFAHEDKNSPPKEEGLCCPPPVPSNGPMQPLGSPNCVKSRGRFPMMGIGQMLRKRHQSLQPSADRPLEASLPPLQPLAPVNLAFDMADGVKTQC
Summary of the method: as §1

[19] = biological target: T19, SRC (Homo sapiens, UniProt P12931); details: read-out: % Retention on Solid Support
T19 construct: purchased DiscoveRx KINOMEscan
T19 sequence (P12931 whole entry): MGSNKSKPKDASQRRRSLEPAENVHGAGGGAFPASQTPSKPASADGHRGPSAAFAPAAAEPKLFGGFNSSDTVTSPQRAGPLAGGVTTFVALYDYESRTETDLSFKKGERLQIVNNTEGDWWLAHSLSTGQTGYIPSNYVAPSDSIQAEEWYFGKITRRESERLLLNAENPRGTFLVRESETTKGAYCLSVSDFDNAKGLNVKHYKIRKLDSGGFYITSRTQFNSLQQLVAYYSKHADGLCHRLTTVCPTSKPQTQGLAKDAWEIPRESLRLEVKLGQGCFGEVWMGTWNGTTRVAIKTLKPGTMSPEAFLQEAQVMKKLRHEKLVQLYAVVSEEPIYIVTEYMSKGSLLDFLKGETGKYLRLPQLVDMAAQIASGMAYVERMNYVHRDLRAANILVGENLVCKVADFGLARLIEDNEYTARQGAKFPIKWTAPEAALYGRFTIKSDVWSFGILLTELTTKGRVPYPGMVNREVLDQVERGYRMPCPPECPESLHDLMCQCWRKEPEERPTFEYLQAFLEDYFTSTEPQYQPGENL
Summary of the method: as §1

[20] = biological target: T20, ERBB2 (Homo sapiens, UniProt P04626); details: read-out: % Retention on Solid Support
T20 construct: purchased DiscoveRx KINOMEscan
Summary of the method: as §1

[21] = biological target: T21, TEC (Homo sapiens, UniProt P42680); details: read-out: % Retention on Solid Support
T21 construct: purchased DiscoveRx KINOMEscan
T21 sequence (P42680 whole entry): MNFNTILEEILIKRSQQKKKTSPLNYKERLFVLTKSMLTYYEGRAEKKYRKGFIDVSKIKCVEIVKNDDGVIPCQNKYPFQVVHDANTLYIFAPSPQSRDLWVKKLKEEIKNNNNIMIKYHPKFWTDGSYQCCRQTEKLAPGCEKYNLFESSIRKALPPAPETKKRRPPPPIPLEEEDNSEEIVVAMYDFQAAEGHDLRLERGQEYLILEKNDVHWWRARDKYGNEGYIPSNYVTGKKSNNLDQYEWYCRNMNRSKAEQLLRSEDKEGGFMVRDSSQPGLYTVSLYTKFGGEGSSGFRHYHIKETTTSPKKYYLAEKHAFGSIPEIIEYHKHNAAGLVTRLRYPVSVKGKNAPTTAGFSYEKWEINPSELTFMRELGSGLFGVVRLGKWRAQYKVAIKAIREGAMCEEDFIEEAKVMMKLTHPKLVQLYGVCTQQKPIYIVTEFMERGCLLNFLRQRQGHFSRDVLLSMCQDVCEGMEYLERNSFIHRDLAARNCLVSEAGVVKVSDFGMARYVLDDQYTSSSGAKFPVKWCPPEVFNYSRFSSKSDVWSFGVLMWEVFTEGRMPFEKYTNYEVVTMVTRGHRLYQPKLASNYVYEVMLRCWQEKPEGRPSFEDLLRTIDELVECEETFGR
Summary of the method: as §1

[22] = biological target: T22, PLK1 (Homo sapiens, UniProt P53350); details: read-out: % Retention on Solid Support
T22 construct: purchased DiscoveRx KINOMEscan
T22 sequence (P53350 whole entry): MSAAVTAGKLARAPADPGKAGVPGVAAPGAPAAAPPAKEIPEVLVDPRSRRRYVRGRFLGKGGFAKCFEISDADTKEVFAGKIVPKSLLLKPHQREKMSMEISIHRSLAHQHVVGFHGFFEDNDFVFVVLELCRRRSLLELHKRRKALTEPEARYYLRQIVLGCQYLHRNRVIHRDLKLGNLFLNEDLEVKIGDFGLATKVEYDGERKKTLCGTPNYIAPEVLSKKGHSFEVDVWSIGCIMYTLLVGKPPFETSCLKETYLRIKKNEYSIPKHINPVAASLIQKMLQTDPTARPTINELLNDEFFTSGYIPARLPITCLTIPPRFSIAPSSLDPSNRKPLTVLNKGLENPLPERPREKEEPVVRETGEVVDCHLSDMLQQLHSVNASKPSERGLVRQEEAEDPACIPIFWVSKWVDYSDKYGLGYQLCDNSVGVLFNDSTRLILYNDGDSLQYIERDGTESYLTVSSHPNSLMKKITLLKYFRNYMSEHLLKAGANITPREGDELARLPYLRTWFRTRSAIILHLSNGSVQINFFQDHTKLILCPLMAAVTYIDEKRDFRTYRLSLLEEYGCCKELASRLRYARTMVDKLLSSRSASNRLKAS
Summary of the method: as §1

[23] = biological target: T23, NEK7 (Homo sapiens, UniProt Q8TDX7); details: read-out: % Retention on Solid Support
T23 construct: purchased DiscoveRx KINOMEscan
Summary of the method: as §1

[24] = biological target: T24, RET(V804M) (Homo sapiens, UniProt P07949, V804M); details: read-out: % Retention on Solid Support
T24 construct: purchased DiscoveRx KINOMEscan
Summary of the method: as §1

For `N[C@H]1CC[C@H](Nc2cc(-c3cccc(NCc4cccc(F)c4)n3)c(Cl)cn2)CC1` [i-CDK9, N2′-(trans-4-aminocyclohexyl)-5′-chloro-N6-(3-fluorobenzyl)-2,4′-bipyridine-2′,6-diamine], the “% Retention on Solid Support” value [1] was 100%, the remaining binding at 1 µM ([2]; 1 µM i-CDK9) was 78% and the remaining binding at 10 µM ([2]; 10 µM i-CDK9) was 100%. For the same molecule, the “% Retention on Solid Support” value ([3]; 1 µM i-CDK9) was 100%, the “% Retention on Solid Support” value ([3]; 10 µM i-CDK9) was 100% and the remaining binding at 1 µM ([4]; 1 µM i-CDK9) was 100%. The remaining binding at 10 µM ([4]; 10 µM i-CDK9) was 100%, the remaining binding at 1 µM ([5]; 1 µM i-CDK9) was 100% and the remaining binding at 10 µM ([5]; 10 µM i-CDK9) was 100%. The remaining binding at 1 µM ([6]; 1 µM i-CDK9) was 100%, the remaining binding at 10 µM ([6]; 10 µM i-CDK9) was 100% and the remaining binding at 1 µM ([7]; 1 µM i-CDK9) was 100%. The remaining binding at 10 µM ([7]; 10 µM i-CDK9) was 94%, the “% Retention on Solid Support” value ([8]; 1 µM i-CDK9) was 53% and the “% Retention on Solid Support” value ([8]; 10 µM i-CDK9) was 51%. For the same molecule, the remaining binding at 1 µM ([9]; 1 µM i-CDK9) was 94%, the remaining binding at 10 µM ([9]; 10 µM i-CDK9) was 71% and the remaining binding at 1 µM ([10]; 1 µM i-CDK9) was 100%. It also gave a remaining binding at 10 µM ([10]; 10 µM i-CDK9) of 100%, a remaining binding at 1 µM ([11]; 1 µM i-CDK9) of 84% and a remaining binding at 10 µM ([11]; 10 µM i-CDK9) of 90%. The remaining binding at 1 µM ([12]; 1 µM i-CDK9) was 100%, the remaining binding at 10 µM ([12]; 10 µM i-CDK9) was 100% and the remaining binding at 1 µM ([13]; 1 µM i-CDK9) was 100%. The remaining binding at 10 µM ([13]; 10 µM i-CDK9) was 89%, the remaining binding at 1 µM ([14]; 1 µM i-CDK9) was 59% and the remaining binding at 10 µM ([14]; 10 µM i-CDK9) was 88%. The “% Retention on Solid Support” value ([15]; 1 µM i-CDK9) was 80%, the “% Retention on Solid Support” value ([15]; 10 µM i-CDK9) was 34% and the remaining binding at 1 µM ([16]; 1 µM i-CDK9) was 100%. The remaining binding at 10 µM ([16]; 10 µM i-CDK9) was 100%, the remaining binding at 1 µM ([17]; 1 µM i-CDK9) was 14% and the remaining binding at 10 µM ([17]; 10 µM i-CDK9) was 11%. For the same molecule, the remaining binding at 1 µM ([18]; 1 µM i-CDK9) was 86%, the remaining binding at 10 µM ([18]; 10 µM i-CDK9) was 52% and the remaining binding at 1 µM ([19]; 1 µM i-CDK9) was 87%. For the same molecule, the remaining binding at 10 µM ([19]; 10 µM i-CDK9) was 100%, the remaining binding at 1 µM ([20]; 1 µM i-CDK9) was 88% and the remaining binding at 10 µM ([20]; 10 µM i-CDK9) was 100%. The remaining binding at 1 µM ([21]; 1 µM i-CDK9) was 99%, the remaining binding at 10 µM ([21]; 10 µM i-CDK9) was 100% and the remaining binding at 1 µM ([22]; 1 µM i-CDK9) was 100%. It also gave a remaining binding at 10 µM ([22]; 10 µM i-CDK9) of 92%, a remaining binding at 1 µM ([23]; 1 µM i-CDK9) of 100% and a remaining binding at 10 µM ([23]; 10 µM i-CDK9) of 100%. It also gave a remaining binding at 1 µM ([24]; 1 µM i-CDK9) of 74% and a remaining binding at 10 µM ([24]; 10 µM i-CDK9) of 74%.

Source: article PMC4490784, “Compensatory induction of MYC expression by sustained CDK9 inhibition via a BRD4-dependent mechanism” (eLife, 2015)
